# According to ChEMBL document CHEMBL6121036, “Evaluation of Cereblon-Directing Warheads for the Development of Orally Bioavailable PROTACs” (J Med Chem, 2025):
# The source made the active and inactive calls. No cut-off for these calls is given here.
# Legend:
# [1] = Effect on PLAU level in human MV4-11 cells assessed as fold change at 100 nM measured after 4 hrs; format: functional
# [2] = AUC last in female CD1 mouse at 10 mg/kg, po measured upto 24 hrs by LC-MS/MS analysis; format: ADME, organism-based; settings: in vivo
# [3] = Effect on FYTTD1 level in human MV4-11 cells assessed as fold change at 100 nM measured after 4 hrs; format: functional
# [4] = target: T1, Protein cereblon/Bromodomain-containing protein 4 (Homo sapiens, UniProt O60885+Q96SW2); assay: PROTAC activity at CRBN/Hibit-tagged CRISPR BRD4 (unknown origin) expressed in HEK293 cells co-expressing LgBiT assessed as degradation of BRD4 measured after 18 to 24 hrs by […] glo-max assay; format: cell-based; settings: time 18-24 hrs
# [5] = Effect on CCNF level in human MV4-11 cells assessed as fold change at 100 nM measured after 4 hrs; format: functional
# [6] = Effect on PLK1 level in human MV4-11 cells assessed as fold change at 100 nM measured after 4 hrs; format: functional
# [7] = Effect on FGL2 level in human MV4-11 cells assessed as fold change at 100 nM measured after 4 hrs; format: functional
# [8] = target: T2, Protein cereblon/Bromodomain-containing protein 2 (Homo sapiens) (UniProt P25440+Q96SW2); assay: PROTAC activity at CRBN/Hibit-tagged CRISPR BRD2 (unknown origin) expressed in HEK293 cells coexpressing LgBiT assessed as degradation of BRD2 by […] glo-max assay; format: cell-based
# [9] = Effect on AURKA level in human MV4-11 cells assessed as fold change at 100 nM measured after 4 hrs; format: functional
# [10] = Effect on NSA2 level in human MV4-11 cells assessed as fold change at 100 nM measured after 4 hrs; format: functional
# [11] = target: T3, Protein cereblon/Bromodomain-containing protein 3 (Homo sapiens) (UniProt Q15059+Q96SW2); assay: PROTAC activity at CRBN/Hibit-tagged CRISPR BRD3 (unknown origin) expressed in HEK293 cells co-expressing LgBiT assessed as degradation of BRD3 by […] glo-max assay relative to control; format: cell-based
# [12] = target: Protein cereblon/Bromodomain-containing protein 4/DNA damage-binding protein 1 (Homo sapiens) (UniProt O60885+Q96SW2+Q16531); assay: Binding affinity to his-tagged CRBN/DDB1/GST-tagged BRD4 (49 to 170 residues)(unknown origin) assessed as ternary complex formation (AUC) incubated for 1 hr by luminescence based Alphascreen assay; format: protein assay
# [13] = Effect on BRD3 level in human MV4-11 cells assessed as fold change at 100 nM measured after 4 hrs; format: functional
# [14] = Effect on CDC42EP3 level in human MV4-11 cells assessed as fold change at 100 nM measured after 4 hrs; format: functional
# [15] = Kinetic aqueous solubility of the compound at pH 7.4; format: physicochemical; settings: read-out: Kinetic_solubility
# [16] = Effect on BRD4 level in human MV4-11 cells assessed as fold change at 100 nM measured after 4 hrs; format: functional
# [17] = target: T1, Protein cereblon/Bromodomain-containing protein 4; assay: PROTAC activity at CRBN/Hibit-tagged CRISPR BRD4 (unknown origin) expressed in HEK293 cells co-expressing LgBiT assessed as degradation of BRD4 by […] glo-max assay; format: cell-based
# MV4-11 = assay: Cytotoxicity against human MV4-11 cells assessed as reduction in cell viability incubated for 72 hrs by cell-titer glo assay; format: functional, cell-based; settings: MV4-11, 72 h
# [18] = target: T3, Protein cereblon/Bromodomain-containing protein 3 (Homo sapiens); assay: PROTAC activity at CRBN/Hibit-tagged CRISPR BRD3 (unknown origin) expressed in HEK293 cells co-expressing LgBiT assessed as degradation of BRD3 by […] glo-max assay; format: cell-based
# HD-MB03 = assay: Cytotoxicity against human HD-MB03 cells assessed as reduction in cell viability incubated for 72 hrs by cell-titer glo assay; format: functional, cell-based; settings: HD-MB03, 72 h
# [19] = Effect on ZFP36L2 level in human MV4-11 cells assessed as fold change at 100 nM measured after 4 hrs; format: functional
# [20] = Effect on BRD2 level in human MV4-11 cells assessed as fold change at 100 nM measured after 4 hrs; format: functional
# [21] = target: T1, Protein cereblon/Bromodomain-containing protein 4; assay: PROTAC activity at CRBN/Hibit-tagged BRD4 (unknown origin) expressed in HEK293 cells co-expressing LgBiT assessed as degradation rate incubated for 24 hrs by […] glo-max assay; format: cell-based
# [22] = target: T1, Protein cereblon/Bromodomain-containing protein 4; assay: PROTAC activity at CRBN/Hibit-tagged BRD4 (unknown origin) expressed in HEK293 cells co-expressing LgBiT assessed as degradation of BRD4 incubated for 24 hrs by […] glo-max assay relative to control; format: cell-based
# [23] = target: T2, Protein cereblon/Bromodomain-containing protein 2 (Homo sapiens); assay: PROTAC activity at CRBN/Hibit-tagged CRISPR BRD2 (unknown origin) expressed in HEK293 cells coexpressing LgBiT assessed as degradation of BRD2 by […] glo-max assay relative to control; format: cell-based
# [24] = Downregulation of BRD4 protein level in human MV4-11 cells at 100 nM incubated for 4 hrs relative to control; format: functional
# [25] = Cmax in female CD1 mouse at 10 mg/kg, po measured upto 24 hrs by LC-MS/MS analysis; format: ADME, organism-based; settings: in vivo
# [26] = Permeability in MDCK-II cells incubated for 1 hr by UPLC/MS/UV analysis; format: ADME, cell-based, Canis lupus familiaris; settings: dog, read-out: permeability
# [27] = Effect on MYC level in human MV4-11 cells assessed as fold change at 100 nM measured after 4 hrs; format: functional
# [28] = Effect on NOP53 level in human MV4-11 cells assessed as fold change at 100 nM measured after 4 hrs; format: functional
# [29] = Effect on ZBTB21 level in human MV4-11 cells assessed as fold change at 100 nM measured after 4 hrs; format: functional
# [30] = target: T3, Protein cereblon/Bromodomain-containing protein 3 (Homo sapiens); assay: PROTAC activity at CRBN/Hibit-tagged CRISPR BRD3 (unknown origin) expressed in HEK293 cells co-expressing LgBiT assessed as degradation of BRD3 measured after 13 to 16 hrs by […] glo-max assay; format: cell-based; settings: time 13-16 hrs
# [31] = Effect on CCND3 level in human MV4-11 cells assessed as fold change at 100 nM measured after 4 hrs; format: functional
# [32] = target: T1, Protein cereblon/Bromodomain-containing protein 4; assay: PROTAC activity at CRBN/Hibit-tagged BRD4 (unknown origin) expressed in HEK293 cells co-expressing LgBiT assessed as degradation of BRD4 incubated for 24 hrs by […] glo-max assay; format: cell-based
# [33] = Effect on TP53 level in human MV4-11 cells assessed as fold change at 100 nM measured after 4 hrs; format: functional
# [34] = Downregulation of BRD3 protein level in human MV4-11 cells at 100 nM incubated for 4 hrs relative to control; format: functional
# [35] = Stability in mouse plasma assessed as half life by UPLC-MS/MS analysis; format: ADME, cell-free
# [36] = Effect on MCL1 level in human MV4-11 cells assessed as fold change at 100 nM measured after 4 hrs; format: functional
# [37] = Effect on RNF166 level in human MV4-11 cells assessed as fold change at 100 nM measured after 4 hrs; format: functional
# [38] = target: T2, Protein cereblon/Bromodomain-containing protein 2 (Homo sapiens); assay: PROTAC activity at CRBN/Hibit-tagged CRISPR BRD2 (unknown origin) expressed in HEK293 cells coexpressing LgBiT assessed as degradation of BRD2 measured after 10 to 14 hrs by […] glo-max assay; format: cell-based; settings: time 10-14 hrs
# [39] = Downregulation of BRD2 protein level in human MV4-11 cells at 100 nM incubated for 4 hrs relative to control; format: functional
# [40] = target: Protein cereblon (Homo sapiens) (UniProt Q96SW2); assay: Binding affinity to CRBN (unknown origin)
# [41] = target: T1, Protein cereblon/Bromodomain-containing protein 4; assay: PROTAC activity at CRBN/Hibit-tagged CRISPR BRD4 (unknown origin) expressed in HEK293 cells co-expressing LgBiT assessed as degradation of BRD4 by […] glo-max assay relative to control; format: cell-based
# HEK293 = assay: Cytotoxicity against HEK293 cells expressing LgBiT fused HiBiT-BRD2 measured after 24 hrs by cell titer-glo assay; format: toxicity, cell-based; settings: human, hek293, 24 h
# [42] = Metabolic stability in mouse liver microsomes assessed as half life; format: ADME, Microsome; settings: liver microsomes
smiles,measurement,setting,value
Cc1sc2c(c1C)C(c1ccc(Cl)cc1)=N[C@@H](CC(=O)N1CCC(CN3CCN(c4ccc5c(c4)C(=O)N(C4CCC(=O)NC4=O)C5=O)CC3)CC1)c1nnc(C)n1-2 (stereo not given in full),fold change (FC),[1],-1.1
same,AUC(0-t) at 24 h,[2],3320 ng·h/mL
same,fold change (FC),[3],-1.73
same,Activity,[4],Active
same,fold change (FC),[5],-1.64
same,fold change (FC),[6],-0.79
same,fold change (FC),[7],-1
same,Activity,[8],Active
same,fold change (FC),[9],-0.95
same,fold change (FC),[10],-1.1
same,Activity,[11],> 95%
same,Activity,[12],Active
same,fold change (FC),[13],-4.09
same,fold change (FC),[14],-1.24
same,solubility kinetic,[15],10.5 µM
same,fold change (FC),[16],-4.11
same,Activity,[17],Active
same,IC50,MV4-11,0.82 nM
same,Activity,[18],Active
same,IC50,HD-MB03,9.29 nM
same,fold change (FC),[19],-1.07
same,fold change (FC),[20],-3.3
same,Activity,[21],0.204 fRLU/hr
same,Emax,[22],95.5%
same,Activity,[23],> 95%
same,Activity,[24],90%
same,Cmax,[25],1160 ng/mL
same,Papp at 1 h,[26],0.79 ×10⁻⁶ cm/s
same,fold change (FC),[27],-1.29
same,fold change (FC),[28],-0.88
same,fold change (FC),[29],-0.06
same,Activity,[30],Active
same,fold change (FC),[31],-0.9
same,DC50,[32],1.08 nM
same,fold change (FC),[33],1.91
same,Activity,[34],90%
same,half-life,[35],17.8 h
same,fold change (FC),[36],-1.17
same,fold change (FC),[37],-1.26
same,Activity,[38],Active
same,Activity,[39],90%
same,Activity,[40],Active
same,Activity,[41],> 90%
same,Activity,HEK293,Non-toxic
same,half-life,[42],9.6 min
